target: T1, PKCδCat-HA (Homo sapiens, UniProt Q05655); assay: PKC kinase activity assay with Ser25 peptide substrate; type: biochemical; details: 10 μM GF109203X
T1 construct: recreated exactly the N-terminus of the caspase-3 cleaved protein; additional initiator methionine (N); expressed in transfected cells; host or cells: COS cells, anti-HA immunoprecipitate
Procedure: FIG. 5 is an image depicting that DMS is required for phosphorylation of 14-3-3ζ by PKCδCat but not for activation of the kinase. COS cells were transfected with either an empty expression construct (Mock) or one encoding a HA-tagged truncated form of PKCδ corresponding to the caspase-3 cleaved protein (PKCδCat-HA). 20 hours after transfection the cells were lysed and PKCδCat-HA was immunoprecipitated using an anti-HA antibody. (A) PKC assays were carried out on the immunoprecipitates from mock (open bars) and PKCδCat-HA (shaded bars) expressing cells using Ser25 peptide as substrate with [^32P]γ-ATP in the presence or absence of 100 μM DMS (delivered in 0.1% ethanol) or 10 μM of GF109203X (GFX), the PKC inhibitor. The values represent means±S.E. of triplicate determinations. (B) PKCδCat-HA immunoprecipitates were incubated with recombinant 14-3-3ζ and [^32P]γ-ATP in the presence or absence of DMS or GF109203X (GFX). Phosphorylated 14-3-3 was detected by autoradiography after separation of SDS-PAGE (upper panel). The gel was also coomassie stained to show equal loading of 14-3-3 protein (lower panel). […]
Equal amounts of PKCδCat-HA immunoprecipitate were used to assay for PKC kinase activity, or to phosphorylate recombinant 14-3-3. […] Following incubation, reactions were separated on 12.5% SDS-PAGE, coomassie stained and 14-3-3 phosphorylation analysed by autoradiography.

T1 sequence (Q05655 330-676 limits assumed): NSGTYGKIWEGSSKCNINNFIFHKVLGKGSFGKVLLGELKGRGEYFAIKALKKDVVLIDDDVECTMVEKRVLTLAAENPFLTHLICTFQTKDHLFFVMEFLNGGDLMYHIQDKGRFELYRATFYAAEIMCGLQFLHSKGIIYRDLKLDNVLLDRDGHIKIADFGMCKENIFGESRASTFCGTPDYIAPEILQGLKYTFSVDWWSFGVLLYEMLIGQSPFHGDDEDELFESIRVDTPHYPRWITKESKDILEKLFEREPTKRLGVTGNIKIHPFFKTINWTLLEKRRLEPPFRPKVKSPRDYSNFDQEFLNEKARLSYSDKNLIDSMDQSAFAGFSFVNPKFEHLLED

SMILES	effect on PKCδCat kinase activity
CN(C)CCCn1cc(C2=C(c3c[nH]c4ccccc34)C(=O)NC2=O)c2ccccc21 [GF109203X]	completely inhibited

target: T2, 14-3-3ζ (Homo sapiens, UniProt P63104); assay: 14-3-3 phosphorylation by PKA catalytic subunit (autoradiography); type: biochemical; details: TMA compounds at 125 μM or 62.5 μM in 0.1% ethanol; P81 scintillation counting or autoradiography
T2 construct: made in house
T2 sequence (P63104 1-245): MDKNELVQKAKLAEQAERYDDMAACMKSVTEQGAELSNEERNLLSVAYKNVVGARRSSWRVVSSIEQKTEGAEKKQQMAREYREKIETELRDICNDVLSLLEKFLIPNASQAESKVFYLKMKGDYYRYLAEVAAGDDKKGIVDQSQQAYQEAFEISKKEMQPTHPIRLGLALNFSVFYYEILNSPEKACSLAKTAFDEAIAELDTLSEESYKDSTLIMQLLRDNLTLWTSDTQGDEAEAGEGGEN

SMILES	14-3-3 phosphorylation by PKA catalytic subunit
CCCCCCCCCCCCCCCC[N+](C)(C)C.[Br-] [C16, hexadecyl-trimethyl ammonium]	capable of facilitating 14-3-3 phosphorylation
CCCCCCCCCCCCCC[N+](C)(C)C [C14]	capable of facilitating 14-3-3 phosphorylation

target: T2, 14-3-3ζ; assay: as above; type: biochemical; details: 50 μM lipid delivered in 0.1% ethanol
Procedure: 14-3-3ζ (wild-type or S58A mutant) was incubated with the catalytic subunit of PKA in the presence (+) or absence (−) of 50 μM sphingosine (A) or DMS (B) delivered in 0.1% ethanol. Phosphorylated 14-3-3ζ was detected by autoradiography.
The assay was carried out by incubating 14-3-g (0.5 μg) with catalytic subunit of PKA (0.2 Units) with the indicated concentration of DMS delivered in 0.1% ethanol. Reactions were separated on SDS-PAGE and phosphorylated protein detected by autoradiography. […] (B) 14-3-3ζ was incubated with the catalytic subunit of PKA and 50 μM D-erythro-sphingosine (Sph), D-erythro-trimethyl-sphingosine (TMS), D-erythro-dihydro-sphingosine (DHS), phyto-sphingosine (PSph), D-erythro-sphingosine-1-phosphate (SIP), C2-ceramide (C2-Cer), sphingomyelin (SM), spermine (Sper) or linoleic acid (LA), all delivered in 0.1% ethanol. Phosphorylated 14-3-3ζ was detected by autoradiography.
Substrate 14-3-3 (either 0.5 μg of purified recombinant 14-3-3, a […] of fractions from gel filtration or immunoprecipitates from 14-3-3ζ-Myc transfected COS cells) were added to reaction mixture comprising 0.2 Units of the PKA catalytic subunit, in the presences or absence of sphingolipid (delivered in 0.1% v/v ethanol) in PICA reaction buffer (20 mM MOPS, pH 7.4, 20 mM β-glycerol phosphate, 4 mM EGTA, 1 mM Na3VO4, 60 mM MgCl2, 1 mM DTT, 500 μM ATP, 2.4 μCi [^32P]γ-ATP). Reactions were incubated at 37° C. for 15 minutes. After incubation, reactions were separated on 12.5% SDS-PAGE, coomassie stained and 14-3-3 phosphorylation analysed by autoradiography.

SMILES	phosphorylation of 14-3-3ζ on Ser58 by PKA catalytic subunit
CCCCCCCCCCCCCCC[C@@H](O)[C@@H](N)CO [dihydro-sphingosine, D-erythro-dihydro-sphingosine]	allowed phosphorylation
NCCCNCCCCNCCCN [spermide, spermine]	did not support the phosphorylation
CCCCCCCCCCCCC/C=C/[C@@H](O)[C@@H](N)COP(=O)(O)O [sphingosine-1-phosphate, D-erythro-sphingosine-1-phosphate]	did not support the phosphorylation
CCCCCCCCCCCCC/C=C/[C@@H](O)[C@H](CO)[N+](C)(C)C [trimethyl-sphingosine, D-erythro-trimethyl-sphingosine]	allowed phosphorylation
CCCCCCCCCCCCCC[C@@H](O)[C@@H](O)[C@@H](N)CO [phyto-sphingosine]	allowed phosphorylation
CCCCC/C=C\C/C=C\CCCCCCCC(=O)O [linoleic acid]	did not support the phosphorylation
CCCCCCCCCCCCC/C=C/[C@@H](O)[C@H](CO)NC(C)=O [ceramide, C2-ceramide]	did not support the phosphorylation
CCCCCCCCCCCCC/C=C/[C@@H](O)[C@H](COP(=O)([O-])OCC[N+](C)(C)C)NC(=O)CCCCCCCCCCCCCCCCC [sphingomyelin]	did not support the phosphorylation

system: Jurkat cells; assay: Jurkat cell apoptosis (TMRE staining, NucView caspase activity); type: cell-based; details: TMAs, 16 hours incubation
Text: (A) Immunoblotting of lysates from either parental Jurkat cells (Jurkat) or cells transduced with lentivirus encoding either wild type (Wt) or S58A 14-3-3ζ-Myc with either an anti-14-3-3ζ specific antibody (upper panel) or an anti-pan 14-3-3 antibody (middle panel) to compare the expression level of transduced protein. Myc immunoprecipitates were also immunoblotted with an anti-phospho 14-3-3 binding site antibody (lower panel) to detect proteins associated with 14-3-3ζ-Myc. Endogenous 14-3-3 is indicated by an open arrow and exogenous 14-3-3ζ-Myc with a closed arrow. (B) Lysates from either wild type (Wt) or S58A 14-3-3ζ-Myc expressing Jutkat cells were subjected to in vitro PKA phosphorylation in the presence (+) or absence (−) of […] and the samples immunoblotted after SDS-PAGE separation With either anti-Myc antibody (upper panel), anti-14-3-3ζ antibody (middle panel) or anti-phospho Ser58 14-3-3ζ antibody (lower panel). (C) Serum-starved Jurkat cells were treated with 2 μM FTY720 for 4 h prior to staining with TMRE and NucView™. Forward- versus side-scatter plots (FS versus SS) show the viable cell populations for FTY720 and EtOH (vehicle) treated cells which are analysed in the lower histograms for caspase activity (NucView™) versus ΔΨM (TMRE). (D and E) Jurkat cell lines expressing either wild type or S58A 14-3-3ζ-Myc by lentiviral transduction were serum-starved for 2 h and treated with either 0.1% ethanol vehicle alone (EtOH), 2 μM dimethyl-sphingosine (DMS), or 2 μM FTY720. Cells were analysed by TMRE staining at 4 h (D) or at the time points indicated (E). (D) Representative analyses of TMRE staining with forward- versus side-scatter plots inset to show the similarity in cell populations. (E) Graphical representation of TMRE analysis over time with open symbols representing vehicle (0.1% EtOH) treated cells and closed symbols representing FTY720 treated cells. […]
FIG. 11. […] Effect of TMAs on Jurkat cells after 16 hours incubation assessed by ΔΨM (TMRE) and caspase 3 activity (NucView™) analysis. […] Forward-side-scatter histograms showing cell viability are inset and caspase 3 activity as assessed by NucView™ analysis of viable cells shown. E. Examples of TMA-derivatives of FTY720 that will be analysed for effects on 14-3-3 dimer stability and apoptosis.
Having confirmed appropriate expression and behaviour of Myc-tagged wild type and S58A 14-3-3ζ in the Jurkat lines, these cells were utilised in functional studies to determine the effect of S58A 14-3-3ζ expression on cell survival in response to sphingosine analogues. […] Intriguingly, Jurkat cells expressing S58A 14-3-3ζ-Myc consistently underwent commitment to apoptosis (as detected by the loss of TMRE staining) more slowly than those expressing wild type 14-3-3ζ-Myc (FIG. 8D).

SMILES	apoptosis of Jurkat cells (ΔΨM by TMRE, caspase 3 by NucView)
CCCCCCCCCCCCCCCC[N+](C)(C)C.[Br-] [CTAB]	apoptosis induced by CTAB
